Reference: patent US20180311247A1, “COMBINATION THERAPIES FOR TREATING CANCERS” (GILEAD SCIENCES, INC., priority 2015, published 2018)
Like-named read-outs stand apart in the source and are kept apart here.

Experiments:
[1] = system: human activated B cell (ABC) subtype DLBCL cell line, TMD8; assay: TMD8 cell viability (CellTiter Glo) growth inhibition assay; format: cell-based; conditions: TMD8 cells; for cell growth inhibition over the dose range: four days, Compound D 0-90 nM, Compound A1 0-22 nM; for IC50: Homo sapiens, TMD8, 96 h, 96 hours, read-out: average IC50 (concentration that causes half maximal inhibition of cell growth)
Description: Material and Methods: The effect of the combination of a BET inhibitor, (2-cyclopropyl-6-(3,5-dimethylisoxazol-4-yl)-1H-benzo[d]imidazol-4-yl)di(pyridin-2-yl)methanol (Compound D), and BTK inhibitor (Compound A1) on growth inhibition of the human activated B cell (ABC) subtype DLBCL cell line, TMD8, was evaluated in vitro. TMD8 cells were dosed with a matrix of Compound D (0-90 nM) and compound A1 (0-22 nM) and treated for four days, after which cell viability was measured by a CellTiter Glo assay. A representative heatmap of this dose matrix for cell growth inhibition is shown in FIG. 2 (0% to 100% growth inhibition). […] Synergy was defined as the excess over the predicted additive interaction between the compounds using Bliss analysis.
Cells were plated at a density of 4,000 cells per well in 384-well (Grenier 781086) tissue culture black well plates already spotted with compounds by a Labcyte Echo liquid handler. […] The predicted response under Bliss additivity for any combination of drugs at a given concentration pair was determined by Ra+Rb−Ra*Rb, where Ra and Rb are the responses of Compounds D and A1 (i.e., cell growth inhibition). The total Bliss score was determined by summing the differences between the observed values and the predicted additive value at each pair of concentrations assayed. Only values where the difference is greater than the 95% confidence interval of the measurements are included in the sum.

[2] = system: type II collagen arthritis in female Lewis rats; assay: rat collagen-induced arthritis model (established type II collagen arthritis); format: in vivo; conditions: for summed ankle histopathology (mean ± standard error), maximum value of 25: day 34
Description: This study evaluated the potential effects of BTK inhibitor in combination with JAK inhibitor in treating arthritis. Lewis rats were injected intradermally/subcutaneously (ID/SC) with porcine type II collagen to induce arthritis. Arthritic rats were treated with vehicle (20% Cremophor EL/10% EtOH/70% saline), Compound A1 (a BTK inhibitor), Compound B4 (a JAK inhibitor), Compound A1 and Compound B4, or Dex (dexamethasone). Compound A1 was administered orally either twice daily at 3, 10, or 20 mg/kg or once daily at 20 mg/kg; Compound B4 was administered orally daily at 2.5 mg/kg; dex was administered daily at 0.075 mg/kg, initiated on day 17. The study was terminated at day 34. Efficacy evaluation was based on body weights, daily ankle caliper measurements, ankle diameter expressed as area under the curve (AUC), terminal hind paw weights, and histopathologic evaluation of right ankles.
This model may reflect certain clinical and histopathologic parameters, such as inflammation, cartilage destruction, and bone resorption that occur in established type II collagen arthritis in female Lewis rats.
Ankle diameters were measured and compared for potential treatment effects. FIG. 1 depicts the measurements taken on Day 9, 13-34 for ankle diameter (in.) (mean±standard error) for the following groups: control (normal and disease), Compound A1 (20 mg/kg, daily), Compound A1 (3 mg/kg, twice daily), Compound B4 (2.5 mg/kg, twice daily), Compound A1 (20 mg/kg, daily) with Compound B4 (2.5 mg/kg, twice daily), Compound A1 (3 mg/kg, twice daily) with Compound B4 (2.5 mg/kg, twice daily) and Dex (0.075 mg/kg daily). In addition, the AUC total sum (day 17-34) (mean f standard error) was measured.
The following score systems were used to evaluate ankle inflammation, ankle pannus, ankle cartilage damage, ankle bone resorption, and periosteal new bone formation, which may represent treatment effects to ankle histology. The sum of the summed ankle histology scores for day 34, are provided herein.
Ankle inflammation scores as used herein have the following meaning: 0=normal; 0.5=minimal focus inflammation; 1=minimal infiltration of inflammatory cells in synovium/periarticular tissue; 2=mild infiltration; 3-moderate infiltration with moderate edema; 4=marked infiltration with marked edema; 5=severe infiltration with severe edema. Ankle pannus scores as used herein have the following meaning: 0=normal; 0.5=minimal infiltration of pannus in cartilage and subchondral bone, affects only marginal zones and affects only a few joints; 1=minimal infiltration of pannus in cartilage and subchondral bone, primarily affects marginal zones; 2=mild infiltration (<25% of tibia or tarsals at marginal zones); 3=moderate infiltration (26%-50% of tibia or small tarsals affected at marginal zones); 4=marked infiltration (51%-75% of tibia or tarsals affected at marginal zones); 5=severe infiltration (>75% of tibia or tarsals affected at marginal zones, severe distortion of overall architecture).

[3] = Compound A1 3 mg/kg, twice daily, orally
[4] = Compound A1 10 mg/kg, twice daily, orally
[5] = Compound A1 20 mg/kg, daily, orally
[6] = Compound A1 20 mg/kg, twice daily, orally
[7] = Compound B4 2.5 mg/kg, twice daily, orally

Structure (SMILES): CC#CC(=O)N1CC[C@@H](n2c(=O)n(-c3ccc(Oc4ccccc4)cc3)c3c(N)ncnc32)C1 [Compound A1, (R)-6-amino-9-(1-(but-2-ynoyl)pyrrolidin-3-yl)-7-(4-phenoxyphenyl)-7H-purin-8(9H)-one]
- cell growth inhibition over the dose range [1]: reduced cell growth
- ED-1 immunopositive osteoclast count (mean ± standard error) [2, 3]: 7±1.3
- ankle diameter AUC total sum (day 17-34) (mean ± standard error) [2, 3]: 5.9±0.079
- percent inhibition of the AUC total sum (day 17-34) [2, 3]: 13%
- percent inhibition of the ED-1 immunopositive osteoclast count [2, 3]: 65%
- percent inhibition of the summed ankle histopathology [2, 3]: 10%
- ED-1 immunopositive osteoclast count (mean ± standard error) [2, 4]: 8±1.9
- ankle diameter AUC total sum (day 17-34) (mean ± standard error) [2, 4]: 5.9±0.102
- percent inhibition of the AUC total sum (day 17-34) [2, 4]: 9%
- percent inhibition of the ED-1 immunopositive osteoclast count [2, 4]: 62%
- percent inhibition of the summed ankle histopathology [2, 4]: 16%
- ED-1 immunopositive osteoclast count (mean ± standard error) [2, 5]: 9±1.5
- ankle diameter AUC total sum (day 17-34) (mean ± standard error) [2, 5]: 5.9±0.096
- percent inhibition of the AUC total sum (day 17-34) [2, 5]: 13%
- percent inhibition of the ED-1 immunopositive osteoclast count [2, 5]: 56%
- percent inhibition of the summed ankle histopathology [2, 5]: 15%
- ED-1 immunopositive osteoclast count (mean ± standard error) [2, 6]: 4±0.7
- ankle diameter AUC total sum (day 17-34) (mean ± standard error) [2, 6]: 5.8±0.124
- percent inhibition of the AUC total sum (day 17-34) [2, 6]: 15%
- percent inhibition of the ED-1 immunopositive osteoclast count [2, 6]: 83%
- percent inhibition of the summed ankle histopathology [2, 6]: 18%
- summed ankle histopathology (mean ± standard error), maximum value of 25 [2, 3]: 23±0.6
- summed ankle histopathology (mean ± standard error), maximum value of 25 [2, 4]: 21±1.4
- summed ankle histopathology (mean ± standard error), maximum value of 25 [2, 5]: 21±0.7
- summed ankle histopathology (mean ± standard error), maximum value of 25 [2, 6]: 21±0.6

Structure (SMILES): C[C@@H]1CCN(C(=O)CC#N)C[C@@H]1N(C)c1ncnc2[nH]ccc12 [Compound B4, 3-((3R,4R)-4-methyl-3-(methyl(7H-pyrrolo[2,3-d]pyrimidin-4-yl)amino)piperidin-1-yl)-3-oxopropanenitrile, reference compound]
- ED-1 immunopositive osteoclast count (mean ± standard error) [2, 7]: 16±1.7
- ankle diameter AUC total sum (day 17-34) (mean ± standard error) [2, 7]: 5.6±0.083
- percent inhibition of the AUC total sum (day 17-34) [2, 7]: 28%
- percent inhibition of the ED-1 immunopositive osteoclast count [2, 7]: 14%
- percent inhibition of the summed ankle histopathology [2, 7]: 23%
- summed ankle histopathology (mean ± standard error), maximum value of 25 [2, 7]: 19±1.4

Structure (SMILES): Cc1noc(C)c1-c1cc(C(O)(c2ccccn2)c2ccccn2)c2nc(C3CC3)[nH]c2c1 [Compound D, (2-cyclopropyl-6-(3,5-dimethylisoxazol-4-yl)-1H-benzo[d]imidazol-4-yl)di(pyridin-2-yl)methanol]
- IC50 ([1]; Compound D alone): 25 nM
- IC50 ([1]; in the presence of 5.5 nM of Compound A1): 11 nM
- IC50 ([1]; in the presence of 11 nM of Compound A1): 8 nM
- cell growth inhibition over the dose range [1]: reduced cell growth

Structure (SMILES): C[C@@H]1C[C@H]2[C@@H]3CCC4=CC(=O)C=C[C@]4(C)[C@@]3(F)[C@@H](O)C[C@]2(C)[C@@]1(O)C(=O)CO [Dex, dexamethasone, reference compound]
- ED-1 immunopositive osteoclast count (mean ± standard error) ([2]; Dex 0.075 mg/kg): 4±1.4
- percent inhibition of the AUC total sum (day 17-34) ([2]; Dex 0.075 mg/kg): 56%
- percent inhibition of the ED-1 immunopositive osteoclast count ([2]; Dex 0.075 mg/kg): 85%
- percent inhibition of the summed ankle histopathology ([2]; Dex 0.075 mg/kg): 51%
- ankle diameter AUC total sum (day 17-34) (mean ± standard error) ([2]; Dex 0.075 mg/kg daily): 5.2±0.069
- summed ankle histopathology (mean ± standard error), maximum value of 25 ([2]; Dex 0.075 mg/kg daily): 12±1.0
